Key:
[1] = Active agent loading into non-lamellar particle dispersion; assay type: physicochemical; settings: active agent relative to mass of total amphiphile, DGMO/GDO/Pluronic F127 54/36/10 dispersion; for % loading by equilibration: 37° C., three days; for % loading by heat treatment: autoclavation 125° C., 20 minutes
Protocol: A composition comprising DGMO (54% by weight), GDO (36% by weight) and Pluronic® F127 (10% by weight) was dispersed in 99 times its weight in water by the method of Example 2.1.
The dispersion was divided into samples and loaded with each of the active agents shown below by each of two techniques: • i) A saturated solution of active was equilibrated with the particles in dispersion at 37° C. for three days by gentle stirring on a rotating table. • ii) The samples were dispersed in a solution of excess active agent and heat treated by autoclavation at 125° C. for 20 minutes and were allowed to temperature equilibrate at 37° C. for at least one hour.
The following loadings were achieved, expressed as percentage active agent incorporated relative to the mass of total amphiphile.

[2] = Oral bioavailability of octreotide in rats (plasma OCT, competitive immunoassay); assay type: in vivo; settings: rat, 0.2 mg/kg, read-out: Absolute bioavailability (F)
Protocol: On the first day of the experiment, the rats were prepared by inserting a silicon catheter (OD approx. 1 mm) in the jugular vein under isoflurane anaesthesia. The catheter was tunnelled under the skin and exteriorised between the scapulae. After surgery the rats were allowed 48 hours of recovery before dosing. The catheter was rinsed with 0.9% NaCl containing 1 mM EDTA, every morning during the recovery period.
In the morning, after approximately 16 hours of fasting (water was accessible), the animals were dosed and blood collected. The animals were allowed free access to water after dosing, but had no access to food. After the last sampling, all animals were sacrificed.
The rats were dosed intravenously through the venous catheter or by gavage by a plastic ball-tipped gavage tube. […]
The content of OCT in all plasma samples was measured by a competitive immunoassay. […] The fraction of antibody remaining in solution is removed, and the fraction bound to the immobilized peptide is quantified, the signal obtained being inversely proportional to the concentration of OCT in the sample. […]
Dose-corrected absolute bioavailability of OCT in the oral non-lamellar formulation was calculated as: Availability (F)=(AUCoral×DoseIV)/(AUCIV×Doseoral)×100 20.6—Results

Compound	% loading by equilibration [1] [%]	% loading by heat treatment [1] [%]	bioavailability [2] [%]
C[C@]12CC[C@@H]3c4ccc(O)cc4C[C@@H](CCCCCCCCC[S+]([O-])CCCC(F)(F)C(F)(F)F)[C@H]3[C@@H]1CC[C@@H]2O (stereo partly shown) [Fulvestrant]	0.6	3.76	
CC(=O)N1CCN(c2ccc(OCC3COC(Cn4ccnc4)(c4ccc(Cl)cc4Cl)O3)cc2)CC1 (stereo not shown) [Ketoconazole]	3.49	19.25	
C[C@@H](O)[C@@H]1NC(=O)[C@H](CCCCN)NC(=O)[C@@H](Cc2c[nH]c3ccccc23)NC(=O)[C@H](Cc2ccccc2)NC(=O)[C@@H](NC(=O)[C@H](N)Cc2ccccc2)CSSC[C@@H](C(=O)N[C@H](CO)[C@@H](C)O)NC1=O [OCT in a saline solution, Octreotide]			~0.04
CC(=O)[C@H]1CC[C@H]2[C@@H]3CCC4=CC(=O)CC[C@]4(C)[C@H]3CC[C@]12C [Progesterone]	2.99	12.65	

Source: US8541400B2, “Compositions forming non-lamellar dispersions” (Camurus AB, priority 2004, dated 2013)
